According to paper PMC5564600 (Oncotarget, 2017):
Where two headings read alike, the source gives them in different places.

How the values were obtained:
Experiment in all cases: biochemical
Assay type in all cases: binding
[1] = target: T1, panel of 442 kinases (Homo sapiens, UniProt O75716); conditions: kinase STK16; for remaining activity at 1 µM: read-out: STK16 (% of control at 1 µM)
T1 construct: purchased Ambit Biosciences (scanMAXX KINOMEscan)

[2] = target: T2, panel of 442 kinases (Homo sapiens, UniProt P00519, Q252H); conditions: for remaining activity at 1 µM: read-out: % of control at 1 µM; for remaining activity at 10 µM: read-out: % of control at 10 µM
T2 construct: purchased Ambit Biosciences (scanMAXX KINOMEscan)

[3] = target: T3, panel of 442 kinases (Homo sapiens, UniProt P07333); conditions: CSF1R; for remaining activity at 1 µM: read-out: % of control at 1 µM
T3 construct: purchased Ambit Biosciences (scanMAXX KINOMEscan)
T3 sequence (P07333 20-972): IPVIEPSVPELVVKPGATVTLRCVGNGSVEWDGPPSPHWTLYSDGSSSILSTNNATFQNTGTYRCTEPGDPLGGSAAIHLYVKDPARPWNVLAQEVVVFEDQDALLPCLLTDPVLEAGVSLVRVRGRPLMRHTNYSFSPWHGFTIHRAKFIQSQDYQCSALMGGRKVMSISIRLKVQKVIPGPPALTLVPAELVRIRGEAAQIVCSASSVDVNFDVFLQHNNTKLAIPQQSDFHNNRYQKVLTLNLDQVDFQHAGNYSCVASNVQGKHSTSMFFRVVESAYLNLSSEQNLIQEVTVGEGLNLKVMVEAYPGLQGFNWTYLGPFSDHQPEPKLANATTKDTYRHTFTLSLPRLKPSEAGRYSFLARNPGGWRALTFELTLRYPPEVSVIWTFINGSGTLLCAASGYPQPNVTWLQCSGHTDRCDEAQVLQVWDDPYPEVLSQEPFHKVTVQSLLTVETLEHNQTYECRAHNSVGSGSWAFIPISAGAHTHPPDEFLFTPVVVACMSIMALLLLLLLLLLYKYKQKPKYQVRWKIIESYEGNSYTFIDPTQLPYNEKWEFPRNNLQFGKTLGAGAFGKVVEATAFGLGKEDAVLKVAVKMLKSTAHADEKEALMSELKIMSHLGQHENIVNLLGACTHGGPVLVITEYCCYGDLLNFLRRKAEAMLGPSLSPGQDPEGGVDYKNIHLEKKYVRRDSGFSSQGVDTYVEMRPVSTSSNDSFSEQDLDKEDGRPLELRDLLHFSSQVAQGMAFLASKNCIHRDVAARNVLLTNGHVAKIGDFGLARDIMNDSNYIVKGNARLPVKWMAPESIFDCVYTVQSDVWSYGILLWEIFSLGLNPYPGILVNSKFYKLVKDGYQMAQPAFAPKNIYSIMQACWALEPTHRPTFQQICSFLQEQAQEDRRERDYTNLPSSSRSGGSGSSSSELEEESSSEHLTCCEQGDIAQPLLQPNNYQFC

[4] = target: T4, panel of 442 kinases (Homo sapiens, UniProt P0C1S8); conditions: kinase WEE2; for remaining activity at 1 µM: read-out: WEE2 (% of control at 1 µM)
T4 construct: purchased Ambit Biosciences (scanMAXX KINOMEscan)
T4 sequence (P0C1S8 whole entry): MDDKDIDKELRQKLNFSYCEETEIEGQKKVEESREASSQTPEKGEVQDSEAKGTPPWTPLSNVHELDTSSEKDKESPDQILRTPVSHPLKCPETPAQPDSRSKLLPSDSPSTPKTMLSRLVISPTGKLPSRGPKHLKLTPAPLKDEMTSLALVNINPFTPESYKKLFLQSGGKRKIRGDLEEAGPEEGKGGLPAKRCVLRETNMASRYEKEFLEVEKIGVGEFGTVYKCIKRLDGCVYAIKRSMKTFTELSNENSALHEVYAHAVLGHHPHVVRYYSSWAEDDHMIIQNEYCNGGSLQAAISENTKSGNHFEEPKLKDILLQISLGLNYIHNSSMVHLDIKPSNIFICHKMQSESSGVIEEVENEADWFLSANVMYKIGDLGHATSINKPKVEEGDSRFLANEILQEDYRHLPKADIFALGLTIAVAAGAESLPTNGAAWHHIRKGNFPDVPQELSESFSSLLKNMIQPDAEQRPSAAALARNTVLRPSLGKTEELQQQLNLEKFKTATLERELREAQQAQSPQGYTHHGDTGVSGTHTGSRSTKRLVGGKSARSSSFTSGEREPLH

[5] = target: T5, panel of 442 kinases (Homo sapiens, UniProt P49137); conditions: kinase MAPKAPK2; for remaining activity at 1 µM: read-out: % of control at 1 µM
T5 construct: purchased Ambit Biosciences (scanMAXX KINOMEscan)

[6] = target: T6, panel of 442 kinases (Homo sapiens, UniProt P68400); conditions: CSNK2A1; for remaining activity at 1 µM: read-out: % of control at 1 µM
T6 construct: purchased Ambit Biosciences (scanMAXX KINOMEscan)
T6 sequence (P68400 whole entry): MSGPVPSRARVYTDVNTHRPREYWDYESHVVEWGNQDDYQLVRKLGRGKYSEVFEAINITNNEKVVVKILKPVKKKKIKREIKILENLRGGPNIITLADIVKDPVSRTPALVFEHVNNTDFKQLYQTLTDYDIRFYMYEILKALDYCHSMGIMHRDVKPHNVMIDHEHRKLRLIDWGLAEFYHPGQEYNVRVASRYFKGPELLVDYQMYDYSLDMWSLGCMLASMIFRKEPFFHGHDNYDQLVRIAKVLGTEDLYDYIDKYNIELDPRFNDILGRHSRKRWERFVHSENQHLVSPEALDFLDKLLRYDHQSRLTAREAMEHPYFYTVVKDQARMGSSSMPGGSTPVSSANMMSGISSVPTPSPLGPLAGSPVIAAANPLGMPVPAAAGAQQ

[7] = target: T7, panel of 442 kinases (Homo sapiens, UniProt Q13464); conditions: kinase ROCK1; for remaining activity at 1 µM: read-out: ROCK1 (% of control at 1 µM)
T7 construct: purchased Ambit Biosciences (scanMAXX KINOMEscan)

[8] = target: T8, panel of 442 kinases (Homo sapiens, UniProt Q15418)
T8 construct: purchased Ambit Biosciences (scanMAXX KINOMEscan)
T8 sequence (Q15418 whole entry): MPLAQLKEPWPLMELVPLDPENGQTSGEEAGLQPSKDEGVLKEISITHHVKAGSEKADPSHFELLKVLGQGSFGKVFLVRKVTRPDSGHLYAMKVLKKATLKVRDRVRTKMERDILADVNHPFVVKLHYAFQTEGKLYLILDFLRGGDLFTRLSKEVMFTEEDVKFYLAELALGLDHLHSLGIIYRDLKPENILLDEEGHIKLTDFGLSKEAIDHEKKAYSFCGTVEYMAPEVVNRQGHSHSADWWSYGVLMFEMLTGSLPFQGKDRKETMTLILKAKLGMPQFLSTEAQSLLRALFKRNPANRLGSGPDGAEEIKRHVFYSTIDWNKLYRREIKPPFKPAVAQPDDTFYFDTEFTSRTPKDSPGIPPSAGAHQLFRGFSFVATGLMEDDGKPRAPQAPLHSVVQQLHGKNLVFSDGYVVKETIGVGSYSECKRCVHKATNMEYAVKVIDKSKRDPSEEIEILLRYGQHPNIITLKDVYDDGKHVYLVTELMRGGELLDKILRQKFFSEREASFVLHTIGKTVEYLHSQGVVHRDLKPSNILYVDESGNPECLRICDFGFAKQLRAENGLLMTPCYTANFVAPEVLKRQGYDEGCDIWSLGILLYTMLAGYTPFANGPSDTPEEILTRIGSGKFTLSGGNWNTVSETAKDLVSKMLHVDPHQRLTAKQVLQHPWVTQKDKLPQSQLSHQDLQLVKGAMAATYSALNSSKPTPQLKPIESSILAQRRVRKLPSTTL

[9] = target: T9, panel of 442 kinases (Homo sapiens, UniProt Q8NE63); conditions: kinase HIPK4; for remaining activity at 1 µM: read-out: % of control at 1 µM
T9 construct: purchased Ambit Biosciences (scanMAXX KINOMEscan)
T9 sequence (Q8NE63 1-616): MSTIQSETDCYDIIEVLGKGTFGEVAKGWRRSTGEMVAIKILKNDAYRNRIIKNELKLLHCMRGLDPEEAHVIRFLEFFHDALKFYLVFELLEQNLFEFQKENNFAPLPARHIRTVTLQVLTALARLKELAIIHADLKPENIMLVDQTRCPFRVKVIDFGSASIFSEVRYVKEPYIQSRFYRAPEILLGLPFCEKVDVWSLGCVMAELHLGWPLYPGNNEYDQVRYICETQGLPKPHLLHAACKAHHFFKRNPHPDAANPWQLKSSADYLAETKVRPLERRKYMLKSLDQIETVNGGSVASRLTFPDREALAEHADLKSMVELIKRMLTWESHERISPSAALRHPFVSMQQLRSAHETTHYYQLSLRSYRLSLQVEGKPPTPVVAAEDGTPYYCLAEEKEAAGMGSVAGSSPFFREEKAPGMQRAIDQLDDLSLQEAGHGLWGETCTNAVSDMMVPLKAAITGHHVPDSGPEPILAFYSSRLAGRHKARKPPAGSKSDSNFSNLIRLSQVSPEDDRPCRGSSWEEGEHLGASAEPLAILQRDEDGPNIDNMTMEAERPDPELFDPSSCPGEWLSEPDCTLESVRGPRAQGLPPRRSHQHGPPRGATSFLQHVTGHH

[10] = target: T10, panel of 442 kinases (Homo sapiens, UniProt Q92772); conditions: CDKL2; for remaining activity at 1 µM: read-out: % of control at 1 µM
T10 construct: purchased Ambit Biosciences (scanMAXX KINOMEscan)
T10 sequence (Q92772 1-493): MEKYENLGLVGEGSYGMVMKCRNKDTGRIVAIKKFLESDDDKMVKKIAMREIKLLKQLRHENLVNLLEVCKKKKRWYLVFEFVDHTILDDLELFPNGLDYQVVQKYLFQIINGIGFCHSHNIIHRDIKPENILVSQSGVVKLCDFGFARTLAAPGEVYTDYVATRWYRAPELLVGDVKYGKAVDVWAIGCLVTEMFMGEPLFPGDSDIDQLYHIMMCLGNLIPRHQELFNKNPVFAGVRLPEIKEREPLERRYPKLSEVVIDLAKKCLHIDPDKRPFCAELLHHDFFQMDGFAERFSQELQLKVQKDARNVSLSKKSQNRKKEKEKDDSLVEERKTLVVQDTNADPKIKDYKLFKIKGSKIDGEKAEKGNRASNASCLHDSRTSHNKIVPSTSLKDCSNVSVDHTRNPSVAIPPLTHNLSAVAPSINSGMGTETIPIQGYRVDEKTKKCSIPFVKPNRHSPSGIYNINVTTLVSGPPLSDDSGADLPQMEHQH

[11] = target: T11, panel of 442 kinases (Homo sapiens, UniProt Q9BWU1); conditions: CDK11; for remaining activity at 1 µM: read-out: % of control at 1 µM
T11 construct: purchased Ambit Biosciences (scanMAXX KINOMEscan)
T11 sequence (Q9BWU1 whole entry): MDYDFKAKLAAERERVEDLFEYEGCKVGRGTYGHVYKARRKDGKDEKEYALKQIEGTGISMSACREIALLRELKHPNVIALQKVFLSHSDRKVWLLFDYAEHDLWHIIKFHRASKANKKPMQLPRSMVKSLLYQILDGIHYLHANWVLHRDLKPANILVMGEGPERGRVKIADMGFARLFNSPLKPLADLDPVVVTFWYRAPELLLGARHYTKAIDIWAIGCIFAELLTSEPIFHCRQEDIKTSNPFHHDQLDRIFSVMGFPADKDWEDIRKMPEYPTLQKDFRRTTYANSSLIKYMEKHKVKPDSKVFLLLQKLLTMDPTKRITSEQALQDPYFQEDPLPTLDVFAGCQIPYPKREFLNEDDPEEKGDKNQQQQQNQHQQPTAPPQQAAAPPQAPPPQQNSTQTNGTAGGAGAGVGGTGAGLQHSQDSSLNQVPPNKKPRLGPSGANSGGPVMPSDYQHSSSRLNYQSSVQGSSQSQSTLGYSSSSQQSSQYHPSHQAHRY

[12] = target: T12, panel of 442 kinases (Homo sapiens, UniProt Q9BXA7); conditions: kinase TSSK1B; for remaining activity at 1 µM: read-out: TSSK1B (% of control at 1 µM)
T12 construct: purchased Ambit Biosciences (scanMAXX KINOMEscan)
T12 sequence (Q9BXA7 1-367): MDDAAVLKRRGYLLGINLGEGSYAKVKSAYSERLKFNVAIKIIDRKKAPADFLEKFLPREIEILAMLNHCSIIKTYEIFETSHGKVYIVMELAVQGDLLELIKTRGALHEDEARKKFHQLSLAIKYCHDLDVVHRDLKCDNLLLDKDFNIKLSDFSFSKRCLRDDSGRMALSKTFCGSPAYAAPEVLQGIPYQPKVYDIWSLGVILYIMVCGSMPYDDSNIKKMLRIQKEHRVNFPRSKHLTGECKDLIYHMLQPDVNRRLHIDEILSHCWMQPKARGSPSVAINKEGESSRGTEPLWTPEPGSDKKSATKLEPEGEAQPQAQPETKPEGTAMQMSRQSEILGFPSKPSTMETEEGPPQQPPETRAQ

[13] = target: T13, panel of 442 kinases (Homo sapiens, UniProt Q9H3Y6); conditions: kinase SRMS; for remaining activity at 1 µM: read-out: SRMS (% of control at 1 µM)
T13 construct: purchased Ambit Biosciences (scanMAXX KINOMEscan)
T13 sequence (Q9H3Y6 whole entry): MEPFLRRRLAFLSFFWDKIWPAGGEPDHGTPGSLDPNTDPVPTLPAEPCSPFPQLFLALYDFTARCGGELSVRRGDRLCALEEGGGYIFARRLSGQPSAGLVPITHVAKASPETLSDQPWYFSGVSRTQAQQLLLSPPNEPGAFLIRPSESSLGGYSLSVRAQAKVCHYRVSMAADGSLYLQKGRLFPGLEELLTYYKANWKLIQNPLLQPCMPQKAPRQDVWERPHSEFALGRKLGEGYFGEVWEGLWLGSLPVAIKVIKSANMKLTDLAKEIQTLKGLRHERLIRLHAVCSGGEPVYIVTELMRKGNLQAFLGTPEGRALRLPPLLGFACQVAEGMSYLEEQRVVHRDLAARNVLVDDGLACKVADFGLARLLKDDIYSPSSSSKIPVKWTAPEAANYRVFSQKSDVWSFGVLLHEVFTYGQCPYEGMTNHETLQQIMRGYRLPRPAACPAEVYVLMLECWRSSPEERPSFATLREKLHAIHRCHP

[14] = target: T14, panel of 442 kinases (Homo sapiens, UniProt Q9UQM7); conditions: CAMK2A; for remaining activity at 1 µM: read-out: % of control at 1 µM
T14 construct: purchased Ambit Biosciences (scanMAXX KINOMEscan)
T14 sequence (Q9UQM7 whole entry): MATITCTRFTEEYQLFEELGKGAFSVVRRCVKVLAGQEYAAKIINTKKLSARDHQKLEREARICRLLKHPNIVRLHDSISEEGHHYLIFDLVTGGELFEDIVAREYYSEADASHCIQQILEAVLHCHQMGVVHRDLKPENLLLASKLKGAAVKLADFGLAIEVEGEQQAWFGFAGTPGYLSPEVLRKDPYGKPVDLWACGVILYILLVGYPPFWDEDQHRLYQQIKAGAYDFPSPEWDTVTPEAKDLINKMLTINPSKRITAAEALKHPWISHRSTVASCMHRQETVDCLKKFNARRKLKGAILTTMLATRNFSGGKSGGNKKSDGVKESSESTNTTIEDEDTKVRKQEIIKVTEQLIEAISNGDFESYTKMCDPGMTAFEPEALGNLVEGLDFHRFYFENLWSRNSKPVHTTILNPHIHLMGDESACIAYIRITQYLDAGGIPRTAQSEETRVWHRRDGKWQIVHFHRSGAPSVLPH

[15] = target: T15, panel of 442 kinases (Homo sapiens, UniProt Q9Y2H1); conditions: kinase NDR2; for remaining activity at 1 µM: read-out: % of control at 1 µM
T15 construct: purchased Ambit Biosciences (scanMAXX KINOMEscan)
T15 sequence (Q9Y2H1 whole entry): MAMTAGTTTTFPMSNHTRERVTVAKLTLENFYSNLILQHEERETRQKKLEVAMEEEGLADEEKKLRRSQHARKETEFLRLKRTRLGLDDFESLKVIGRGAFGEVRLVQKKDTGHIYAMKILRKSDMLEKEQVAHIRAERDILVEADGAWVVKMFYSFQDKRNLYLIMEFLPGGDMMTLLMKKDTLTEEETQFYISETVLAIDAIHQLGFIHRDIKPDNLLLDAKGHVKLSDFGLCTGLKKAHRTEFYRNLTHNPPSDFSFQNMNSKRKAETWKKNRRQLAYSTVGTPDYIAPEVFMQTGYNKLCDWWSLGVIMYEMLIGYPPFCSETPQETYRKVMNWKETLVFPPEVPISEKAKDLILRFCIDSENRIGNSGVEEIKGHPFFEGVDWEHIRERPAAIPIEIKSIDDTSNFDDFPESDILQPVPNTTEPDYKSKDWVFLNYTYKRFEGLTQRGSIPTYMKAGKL

[16] = 10 µM, read-out: % of control at 10 µM
[17] = kinase RSK1(Kin.Dom.1-N-terminal), read-out: RSK1(Kin.Dom.1-N-terminal) (% of control at 1 µM)
[18] = kinase RSK1(Kin.Dom.2-C-terminal), read-out: RSK1(Kin.Dom.2-C-terminal) (% of control at 1 µM)

T1 sequence (O75716 whole entry): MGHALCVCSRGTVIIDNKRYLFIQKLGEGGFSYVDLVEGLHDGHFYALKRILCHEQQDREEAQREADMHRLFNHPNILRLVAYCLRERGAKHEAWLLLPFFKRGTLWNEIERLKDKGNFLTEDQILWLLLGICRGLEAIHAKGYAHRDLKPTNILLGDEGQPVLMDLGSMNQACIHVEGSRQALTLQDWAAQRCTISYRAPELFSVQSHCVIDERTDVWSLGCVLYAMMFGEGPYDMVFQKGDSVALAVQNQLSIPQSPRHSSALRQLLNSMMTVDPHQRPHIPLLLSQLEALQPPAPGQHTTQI

SMILES | remaining activity at 1 µM [1] | remaining activity at 1 µM ([2]; ABL1(Q252H)-nonphosphorylated) | remaining activity at 1 µM ([2]; ABL1(Q252H)-phosphorylated) | remaining activity at 1 µM [3] | remaining activity at 1 µM [4] | remaining activity at 1 µM [5] | remaining activity at 1 µM [6] | remaining activity at 1 µM [7] | remaining activity at 1 µM [8, 17] | remaining activity at 1 µM [8, 18] | remaining activity at 1 µM [9] | remaining activity at 1 µM [10] | remaining activity at 1 µM [11] | remaining activity at 1 µM [12] | remaining activity at 1 µM [13] | remaining activity at 1 µM [14] | remaining activity at 1 µM [15] | further results
Nc1cc(C(F)(F)F)c(-c2cc(N3CCOCC3)nc(N3CCOCC3)n2)cn1 [Buparlisib] | 100% | 100% | 72% | 85% | 100% | 100% | 91% | 86% | 100% | 97% | 97% | 66% | 100% | 97% | 100% | 100% | 90% | remaining activity at 10 µM ([1]; 10 µM, read-out: STK16 (% of control at 10 µM)): 92%; remaining activity at 10 µM ([2]; ABL1(Q252H)-nonphosphorylated): 100%; remaining activity at 10 µM ([2]; ABL1(Q252H)-phosphorylated): 100%; remaining activity at 10 µM [3, 16]: 40%; remaining activity at 10 µM ([4]; 10 µM, read-out: WEE2 (% of control at 10 µM)): 100%; remaining activity at 10 µM [5, 16]: 100%; remaining activity at 10 µM [6, 16]: 100%; remaining activity at 10 µM ([7]; 10 µM, read-out: ROCK1 (% of control at 10 µM)): 80%; remaining activity at 10 µM ([8]; kinase RSK1(Kin.Dom.1-N-terminal), read-out: RSK1(Kin.Dom.1-N-terminal) (% of control at 10 µM)): 100%; remaining activity at 10 µM ([8]; kinase RSK1(Kin.Dom.2-C-terminal), read-out: RSK1(Kin.Dom.2-C-terminal) (% of control at 10 µM)): 98%; remaining activity at 10 µM [9, 16]: 100%; remaining activity at 10 µM [10, 16]: 100%; remaining activity at 10 µM [11, 16]: 98%; remaining activity at 10 µM ([12]; 10 µM, read-out: TSSK1B (% of control at 10 µM)): 100%; remaining activity at 10 µM ([13]; 10 µM, read-out: SRMS (% of control at 10 µM)): 100%; remaining activity at 10 µM [14, 16]: 100%; remaining activity at 10 µM [15, 16]: 100%
Cn1c(=O)n(-c2ccc(C(C)(C)C#N)cc2)c2c3cc(-c4cnc5ccccc5c4)ccc3ncc21 [Dactolisib, 2-methyl-2-[4-(3-methyl-2-oxo-8-quinolin-3-yl-2,3-dihydroimidazo[4,5-c]quinolin-1-yl)-phenyl] propionitrile] | 100% | 57% | 59% | – | 100% | 92% | 64% | 52% | 77% | 61% | 87% | 26% | 88% | 98% | 88% | 90% | 100% | –
COc1ncc(-c2ccc3nccc(-c4ccnnc4)c3c2)cc1NS(=O)(=O)c1ccc(F)cc1F [Omipalisib] | 42% | 100% | 100% | 100% | 84% | 100% | 100% | 88% | 95% | 95% | 98% | 90% | 64% | 100% | 90% | 100% | 100% | –
FC(F)c1nc2ccccc2n1-c1nc(N2CCOCC2)nc(N2CCOCC2)n1 [ZSTK474, 2-(difluoromethyl)-1-[4,6-di(4-morpholinyl)-1,3,5-triazin-2-yl]-1H-benzimidazole] | 100% | 100% | 100% | 90% | 96% | 99% | 90% | 75% | 100% | 83% | 77% | 100% | 88% | 76% | 80% | 87% | 100% | –
